Calls of active or inactive are those of the source. The calls are words filed in the database; no cut-off is given here.
Tests used:
[1] = test system: RAW264.7; assay: Antiinflammatory activity against mouse RAW264.7 cells stably transfected with luciferase reporter gene assessed as inhibition of LPS-induced NF-kB activation preincubated for 30 min followed by LPS stimulation for 8 hrs by luciferase based assay; assay type: functional, cell-based
[2] = test system: RAW264.7; assay: Inhibition of p65 translocation in mouse RAW264.7 cells at 20 uM preincubated with RANKL for 24 hrs followed by compound addition and measured after 4 hrs by immunofluorescence analysis; assay type: cell-based
[3] = test system: RAW264.7; assay: Cytotoxicity against mouse RAW264.7 cells assessed as reduction in cell viability at 5 to 20 uM incubated for 72 hrs by MTT assay; assay type: toxicity, cell-based; conditions: raw264.7, 72 h, dose 5-20 µM
[4] = biological target: T1, NF-kappa-B inhibitor alpha (Mus musculus) (UniProt Q9Z1E3); assay: Inhibition of IkappaBalpha phosphorylation in mouse RAW264.7 cells at 5 to 20 uM preincubated for 4 hrs followed by RANKL addition and measured after 30 mins by Western blot analysis; assay type: cell-based; conditions: dose 5-20 µM
T1 sequence (whole entry): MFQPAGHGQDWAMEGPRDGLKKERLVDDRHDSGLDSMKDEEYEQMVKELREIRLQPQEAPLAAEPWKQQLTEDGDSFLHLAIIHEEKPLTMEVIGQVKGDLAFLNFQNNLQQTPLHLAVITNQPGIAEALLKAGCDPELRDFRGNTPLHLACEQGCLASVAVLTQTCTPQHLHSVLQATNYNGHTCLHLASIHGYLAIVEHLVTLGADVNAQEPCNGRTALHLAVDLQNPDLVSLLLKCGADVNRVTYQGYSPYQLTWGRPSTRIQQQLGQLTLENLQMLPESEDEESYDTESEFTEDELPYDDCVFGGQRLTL

[5] = test system: RAW264.7; assay: Downregulation of nuclear NFATc1 expression in mouse RAW264.7 cells at 20 uM preincubated for 4 hrs followed by RANKL addition and measured after 24 hrs by Western blot analysis; assay type: functional, cell-based; conditions: time 28.0 hrs
[6] = test system: RAW264.7; assay: Upregulation of cytoplasmic p65 level in mouse RAW264.7 cells at 5 to 20 uM preincubated for 4 hrs followed by RANKL addition and measured after 30 mins by Western blot analysis; assay type: functional, cell-based; conditions: dose 5-20 µM, time 4.5 hrs
[7] = test system: RAW264.7; assay: Inhibition of p65 translocation in mouse RAW264.7 cells at 5 to 20 uM preincubated for 4 hrs followed by RANKL addition and measured after 30 mins by Western blot analysis; assay type: cell-based; conditions: dose 5-20 µM, time 4.5 hrs
[8] = test system: BMDM; assay: Anti-osteoclastogenesis activity in RANKL/MCSF-induced mouse BMDM cells assessed as inhibition of osteoclast differentiation at 5 to 20 uM incubated for 3 days by TRAP-staining based microscopic analysis; assay type: functional, cell-based; conditions: dose 5-20 µM, time 3.0 day
[9] = biological target: T2, Mitogen-activated protein kinase kinase kinase 7 (Mus musculus) (UniProt Q62073); assay: Inhibition of TAK1 activation in mouse RAW264.7 cells at 5 to 20 uM preincubated for 4 hrs followed by RANKL addition and measured after 30 mins by Western blot analysis; assay type: cell-based; conditions: dose 5-20 µM, time 4.5 hrs
T2 sequence (whole entry): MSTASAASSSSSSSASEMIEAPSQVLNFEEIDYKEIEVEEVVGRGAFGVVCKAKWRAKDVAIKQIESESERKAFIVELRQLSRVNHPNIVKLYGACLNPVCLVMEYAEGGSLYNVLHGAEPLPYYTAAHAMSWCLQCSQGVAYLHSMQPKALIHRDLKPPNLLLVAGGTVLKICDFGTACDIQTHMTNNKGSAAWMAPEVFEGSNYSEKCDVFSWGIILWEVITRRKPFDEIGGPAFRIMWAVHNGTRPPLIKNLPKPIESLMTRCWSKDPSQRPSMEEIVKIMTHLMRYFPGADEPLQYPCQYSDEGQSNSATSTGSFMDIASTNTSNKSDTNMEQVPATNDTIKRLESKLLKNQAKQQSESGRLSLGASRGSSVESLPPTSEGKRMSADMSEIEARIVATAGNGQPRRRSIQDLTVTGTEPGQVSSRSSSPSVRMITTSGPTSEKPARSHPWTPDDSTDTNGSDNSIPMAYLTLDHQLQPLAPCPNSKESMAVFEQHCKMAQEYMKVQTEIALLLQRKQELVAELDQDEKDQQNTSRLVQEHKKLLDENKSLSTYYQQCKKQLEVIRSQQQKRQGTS

| IC50 [1] [µM] | inhibition [4] | inhibition [9] | Structure (SMILES) | inhibition [2] | Activity [3] | Activity [5] | Activity [6] | inhibition [7] | Activity [8] |
| --- | --- | --- | --- | --- | --- | --- | --- | --- | --- |
| 5 | – | – | Cc1ccc(S(=O)(=O)/C=C/C#N)cc1 | – | – | – | – | – | – |
| 11 | Active | Active | CC1(C)O[C@@]23CC[C@@]4(C)[C@@](O)(CC[C@@H](CC(=O)c5ccccc5N)[C@]4(C)C(=O)O)C2=CC(=O)[C@@H]1O3 | Active | Non-Toxic | Active | Active | Active | Active |
